Each compound was assayed against full-length human BTK (Homo sapiens (Human), UniProt Q06187) (assay: BTK IC50 enzyme assay (microfluidic off-chip mobility shift kinase assay)). Conditions: incubated for 90 min. at 27 C; read-out: Time Dependent BTK Enzyme Assay IC50.
Sequence of full-length human BTK (Q06187 whole entry): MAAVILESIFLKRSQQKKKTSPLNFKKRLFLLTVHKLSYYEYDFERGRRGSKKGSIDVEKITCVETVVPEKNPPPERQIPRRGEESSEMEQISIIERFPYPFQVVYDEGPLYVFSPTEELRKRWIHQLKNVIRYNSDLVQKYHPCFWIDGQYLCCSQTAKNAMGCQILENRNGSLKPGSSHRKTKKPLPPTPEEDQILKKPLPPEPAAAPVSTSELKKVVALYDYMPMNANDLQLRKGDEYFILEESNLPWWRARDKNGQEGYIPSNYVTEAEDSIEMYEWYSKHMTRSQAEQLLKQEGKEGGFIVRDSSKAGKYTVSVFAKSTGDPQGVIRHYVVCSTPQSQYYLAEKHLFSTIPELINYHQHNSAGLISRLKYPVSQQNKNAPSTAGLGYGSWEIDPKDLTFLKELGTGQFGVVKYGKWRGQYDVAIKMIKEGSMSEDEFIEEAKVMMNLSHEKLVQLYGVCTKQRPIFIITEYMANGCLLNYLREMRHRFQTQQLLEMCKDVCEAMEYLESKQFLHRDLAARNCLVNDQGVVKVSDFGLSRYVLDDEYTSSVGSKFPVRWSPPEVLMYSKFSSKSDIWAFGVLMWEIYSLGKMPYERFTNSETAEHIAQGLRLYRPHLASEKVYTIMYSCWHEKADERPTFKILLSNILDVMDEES
Assay type: biochemical
Procedure, shortened: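 Read-out separates phosphorylated peptide product from substrate by charge/mass in a mobility shift format with full-length human BTK.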
C=CC(=O)Nc1cccc(Oc2ncnc(N)c2-c2ccc(OCc3ccccc3)nc2)c1 [A259, N-(3-((6-amino-5-(6-(benzyloxy)pyridin-3-yl)pyrimidin-4-yl)oxy)phenyl)acrylamide] showed an IC50 of less than 100 nM.
C#CC(=O)N1CC2(CC(Nc3ncnc(N)c3-c3cnn(Cc4ccccc4)c3)C2)C1 [A111, 1-(6-((6-amino-5-(1-benzyl-1H-pyrazol-4-yl)pyrimidin-4-yl)amino)-2-azaspiro[3.3]heptan-2-yl)prop-2-yn-1-one] showed an IC50 of less than 100 nM.
Work on C=CC(=O)N1CC[C@@H](COc2ncnc(N)c2-c2cnn(Cc3ccccc3)c2)C1 [A196, (R)-1-(3-(((6-amino-5-(1-benzyl-1H-pyrazol-4-yl)pyrimidin-4-yl)oxy)methyl)pyrrolidin-1-yl)prop-2-en-1-one] yielded an IC50 of less than 1000 nM.
With CCC(=O)Nc1cccc(Oc2ncnc(N)c2-c2ccc(Oc3ccccc3)cc2)c1 [A326, N-(3-((6-amino-5-(4-phenoxyphenyl)pyrimidin-4-yl)oxy)phenyl)propionamide] the IC50 was greater than 1000 nM.
Compound C#CC(=O)N1CC(CCNc2ncnc(N)c2-c2ccc(Oc3ccccc3)cc2)C1 [A104, 1-(3-(2-((6-amino-5-(4-phenoxyphenyl)pyrimidin-4-yl)amino)ethyl)azetidin-1-yl)prop-2-yn-1-one] has an IC50 of less than 100 nM.
C=CC(=O)Nc1cccc(Oc2ncnc(N)c2-c2cnn(Cc3ccc(F)cc3)c2)c1 [A187, N-(3-((6-amino-5-(1-(4-fluorobenzyl)-1H-pyrazol-4-yl)pyrimidin-4-yl)oxy)phenyl)acrylamide] showed an IC50 of less than 100 nM.
In the case of C=CC(=O)N1C2CCC1CC(CNc1ncnc(N)c1-c1ccc(Oc3ccc(C#N)cc3)cc1)C2 (centres unmarked) [A208, 4-(4-(4-(((8-acryloyl-8-azabicyclo[3.2.1]octan-3-yl)methyl)amino)-6-aminopyrimidin-5-yl)phenoxy)benzonitrile], the IC50 is reported as greater than 1000 nM.
Compound C=CC(=O)N1CCC(CNc2ncnc(N)c2-c2ccc(OCc3ccccc3)cc2)CC1 [A292, 1-(4-(((6-amino-5-(4-(benzyloxy)phenyl)pyrimidin-4-yl)amino)methyl)piperidin-1-yl)prop-2-en-1-one] has an IC50 of less than 1000 nM.
C=CC(=O)NCC1CCN(c2ncnc(N)c2-c2ccc(Oc3ccccc3)cc2)CC1 [A7, N-((1-(6-amino-5-(4-phenoxyphenyl)pyrimidin-4-yl)piperidin-4-yl)methyl)acrylamide] gave an IC50 greater than 1000 nM.
C=CC(=O)N1CCC(CNc2ncnc(N)c2-c2ccc(OC(F)(F)F)cc2)CC1 [A78, 1-(4-(((6-amino-5-(4-(trifluoromethoxy)phenyl)pyrimidin-4-yl)amino)methyl)piperidin-1-yl)prop-2-en-1-one] gave an IC50 greater than 1000 nM.
In the case of C=CC(=O)Nc1cccc(Oc2ncnc(N)c2-c2cnn(Cc3cccc(Cl)c3)c2)c1 [A191, N-(3-((6-amino-5-(1-(3-chlorobenzyl)-1H-pyrazol-4-yl)pyrimidin-4-yl)oxy)phenyl)acrylamide], the IC50 is reported as less than 100 nM.
For COCCN(C)C/C=C/C(=O)N1CCC(CNc2ncnc(N)c2-c2ccc(Oc3ccccc3)cc2)CC1 [A11, (E)-1-(4-(((6-amino-5-(4-phenoxyphenyl)pyrimidin-4-yl)amino)methyl)piperidin-1-yl)-4-((2-methoxyethyl)(methyl)amino)but-2-en-1-one], the IC50 was greater than 1000 nM.
Work on C=CC(=O)Nc1cccc(Oc2ncnc(N)c2-c2ccc(Oc3ccccc3F)nc2)c1 [A165, N-(3-((6-amino-5-(6-(2-fluorophenoxy)pyridin-3-yl)pyrimidin-4-yl)oxy)phenyl)acrylamide] yielded an IC50 of less than 100 nM.
For C=CC(=O)N1CCC(O)(CNc2ncnc(N)c2-c2ccc(Oc3cccc(C(F)(F)F)c3)cc2)CC1 [A169, 1-(4-(((6-amino-5-(4-(3-(trifluoromethyl)phenoxy)phenyl)pyrimidin-4-yl)amino)methyl)-4-hydroxypiperidin-1-yl)prop-2-en-1-one], the IC50 was less than 100 nM.
In the case of C/C=C/C(=O)Nc1cccc(-c2cnccc2Oc2ccc(Oc3ccccc3)cc2)c1 [A307, (E)-N-(3-(4-(4-phenoxyphenoxy)pyridin-3-yl)phenyl)but-2-enamide], the IC50 is reported as greater than 1000 nM.
Work on C=CC(=O)Nc1cccc(Oc2ncnc(N)c2-c2ccc(OCc3ccccc3)c(F)c2F)c1 [A257, N-(3-((6-amino-5-(4-(benzyloxy)-2,3-difluorophenyl)pyrimidin-4-yl)oxy)phenyl)acrylamide] yielded an IC50 of less than 100 nM.
With Nc1ncnc(Oc2cccc(NC(=O)CCl)c2)c1-c1ccc(OCc2ccccc2)cc1F [A350, N-{3-(6-Amino-5-(4-benzyloxy-2-fluoro-phenyl)-pyrimidin-4-yloxy}-phenyl)-2-chloro-acetamide] the IC50 was less than 100 nM.
For Nc1ncnc(Oc2ccc(Oc3ccccc3)cc2)c1-c1cccc(NC(=O)/C=C/CN2CCOCC2)c1 [A274, (E)-N-(3-(4-amino-6-(4-phenoxyphenoxy)pyrimidin-5-yl)phenyl)-4-morpholinobut-2-enamide], the IC50 was less than 100 nM.
In the case of C=CC(=O)Nc1cccc(Oc2ncnc(N)c2-c2ccc(OCc3ccccc3)c(OC)c2)c1 [A256, N-(3-((6-amino-5-(4-(benzyloxy)-3-methoxyphenyl)pyrimidin-4-yl)oxy)phenyl)acrylamide], the IC50 is reported as less than 100 nM.
CC#CC(=O)N1CC2(CC(Nc3ncnc(N)c3-c3ccc(Oc4ccccc4)cc3)C2)C1 [A108, 1-(6-((6-amino-5-(4-phenoxyphenyl)pyrimidin-4-yl)amino)-2-azaspiro[3.3]heptan-2-yl)but-2-yn-1-one] was tested, and the IC50 was less than 100 nM.
For C=CC(=O)N[C@H]1CC[C@@H](Nc2ncnc(N)c2-c2ccc(C(=O)Nc3ccccc3)cc2)CC1 [A159, 4-(4-((cis-4-acrylamidocyclohexyl)amino)-6-aminopyrimidin-5-yl)-N-phenylbenzamide], the IC50 was greater than 1000 nM.
For C=CC(=O)NC12CCC(Nc3ncnc(N)c3-c3ccc(Oc4ccccc4)cc3)(C1)C2 [A177, N-(4-((6-amino-5-(4-phenoxyphenyl)pyrimidin-4-yl)amino)bicyclo[2.1.1]hexan-1-yl)acrylamide], the IC50 was less than 100 nM.
For C=CC(=O)N1C[C@H](F)C[C@@H](Nc2ncnc(N)c2-c2ccc(Oc3ccccc3)cc2)C1 [A205, 1-((3R,5R)-3-((6-amino-5-(4-phenoxyphenyl)pyrimidin-4-yl)amino)-5-fluoropiperidin-1-yl)prop-2-en-1-one], the IC50 was less than 100 nM.
C=CC(=O)NCc1ccc(-c2cnccc2Oc2ccc(Oc3ccccc3)cc2)cc1 [A287, N-(4-(4-(4-phenoxyphenoxy)pyridin-3-yl)benzyl)acrylamide] gave an IC50 of less than 1000 nM.
C#CC(=O)N1CC2(CC(Oc3ncnc(N)c3-c3cnn(Cc4ccccc4)c3)C2)C1 [A112, 1-(6-((6-amino-5-(1-benzyl-1H-pyrazol-4-yl)pyrimidin-4-yl)oxy)-2-azaspiro[3.3]heptan-2-yl)prop-2-yn-1-one] showed an IC50 of less than 100 nM.
C=CC(=O)N1CCCC(Nc2nc(N)ncc2-c2ccc(Oc3ccccc3)cc2)C1 (centres unmarked) [A150, 1-(3-((2-amino-5-(4-phenoxyphenyl)pyrimidin-4-yl)amino)piperidin-1-yl)prop-2-en-1-one] was tested, and the IC50 was less than 1000 nM.
For C=CC(=O)N1CCO[C@@H](COc2ncnc(N)c2-c2cnn(Cc3ccccc3)c2)C1 [A192, (R)-1-(2-(((6-amino-5-(1-benzyl-1H-pyrazol-4-yl)pyrimidin-4-yl)oxy)methyl)morpholino)prop-2-en-1-one], the IC50 was less than 1000 nM.
For C=CC(=O)Nc1cccc(Oc2ncnc(N)c2-c2ccc(OC(C)C)cc2)c1 [A289, N-(3-((6-amino-5-(4-isopropoxyphenyl)pyrimidin-4-yl)oxy)phenyl)acrylamide], the IC50 was less than 1000 nM.
Compound C=CC(=O)N1CCC(CNc2ncnc(N)c2-c2ccc(Cc3ccccc3)cc2)CC1 [A41, 1-(4-(((6-amino-5-(4-benzylphenyl)pyrimidin-4-yl)amino)methyl)piperidin-1-yl)prop-2-en-1-one] has an IC50 of less than 100 nM.
Compound CN(C)C/C=C/C(=O)Nc1ccc(Oc2ncnc(N)c2-c2ccc(Oc3ccccc3)cc2)cc1 [A290, (E)-N-(4-((6-amino-5-(4-phenoxyphenyl)pyrimidin-4-yl)oxy)phenyl)-4-(dimethylamino)but-2-enamide] has an IC50 of less than 1000 nM.
In the case of C=CC(=O)Nc1cccc(Oc2ncnc(N)c2-c2cnn(Cc3cccc(N(C)C)c3)c2)c1 [A212, N-(3-((6-amino-5-(1-(3-(dimethylamino)benzyl)-1H-pyrazol-4-yl)pyrimidin-4-yl)oxy)phenyl)acrylamide], the IC50 is reported as less than 100 nM.
With C=CC(=O)Nc1cccc(Oc2ncnc(N)c2-c2cnc(OCc3ccccc3)nc2)c1 [A261, N-(3-((6-amino-2′-(benzyloxy)-[5,5′-bipyrimidin]-4-yl)oxy)phenyl)acrylamide] the IC50 was less than 100 nM.
CC#CC(=O)Nc1cccc(Oc2ccnc(N)c2-c2ccc(Oc3ccccc3)cc2)c1 [A340, N-(3-((2-amino-3-(4-phenoxyphenyl)pyridin-4-yl)oxy)phenyl)but-2-ynamide] gave an IC50 of less than 100 nM.
Compound N#CC1(C(=O)Nc2cccc(Oc3ncnc(N)c3-c3ccc(Oc4ccccc4)cc3)c2)CC1 [A329, N-(3-((6-amino-5-(4-phenoxyphenyl)pyrimidin-4-yl)oxy)phenyl)-1-cyanocyclopropanecarboxamide] has an IC50 greater than 1000 nM.
C=CC(=O)Nc1cccc(Oc2ncnc(N)c2-c2ccc(OCc3ccccc3)cc2F)c1 [A349, N-{3-[6-Amino-5-(4-benzyloxy-2-fluoro-phenyl)-pyrimidin-4-yloxy]-phenyl}-acrylamide] was tested, and the IC50 was less than 100 nM.
Compound C=CC(=O)N1CCCC(COc2ncnc(N)c2-c2ccc(Oc3ccccc3)cc2)C1 (centres unmarked) [A17, 1-(3-(((6-amino-5-(4-phenoxyphenyl)pyrimidin-4-yl)oxy)methyl)piperidin-1-yl)prop-2-en-1-one] has an IC50 of less than 100 nM.
Compound CN(C)C/C=C/C(=O)N1CCC(CNc2ncnc(N)c2-c2ccc(Oc3ccccc3)cc2)CC1 [A153, (E)-1-(4-(((6-amino-5-(4-phenoxyphenyl)pyrimidin-4-yl)amino)methyl)piperidin-1-yl)-4-(dimethylamino)but-2-en-1-one] has an IC50 of less than 1000 nM.

— patent publication US9580449B2, “Compositions and methods for the production of pyrimidine and pyridine compounds with BTK inhibitory activity” (Merck Patent GmbH, priority 2011, dated 2017)
